Laboratory results as given in patent publication US12077503B2, “Substituted cyclic amides and their use as herbicides” (FMC CORPORATION, priority 2015, dated 2024).

Experiments:
Format in all cases: in vivo
[1] = system: giant foxtail (Setaria faberii); experiment: Test A postemergence; settings: postemergence, 0 to 100 scale (0 no effect, 100 complete control)
Summary of the method: (§1)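 Visual injury scores from 0, no effect, to 100, complete control, were assigned versus untreated controls roughly 10 d after treatment in the greenhouse. Test chemicals, formulated with surfactant in a non-phytotoxic solvent, were applied to planted seeds as a preemergence soil spray or postemergence to one- to two-leaf plants 2 to 10 cm tall, in loam–sand soil.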

[2] = system: pigweed (Amaranthus retroflexus); experiment: Test A postemergence; settings: postemergence, 0 to 100 scale (0 no effect, 100 complete control)
Summary of the method: as §1

corn (Zea mays) = experiment: Test A postemergence; settings: postemergence, 0 to 100 scale (0 no effect, 100 complete control)
Summary of the method: as §1

[3] = system: wheat (Triticum aestivum); experiment: Test A postemergence; settings: postemergence, 0 to 100 scale (0 no effect, 100 complete control)
Summary of the method: as §1

[4] = system: blackgrass (Alopecurus myosuroides); experiment: Test A postemergence; settings: postemergence, 0 to 100 scale (0 no effect, 100 complete control)
Summary of the method: as §1

Kochia (Kochia scoparia) [5] = experiment: Test A postemergence; settings: postemergence, 0 to 100 scale (0 no effect, 100 complete control)
Summary of the method: as §1

[6] = system: barnyardgrass (Echinochloa crus-galli); experiment: Test A postemergence; settings: postemergence, 0 to 100 scale (0 no effect, 100 complete control)
Summary of the method: as §1

[7] = system: Galium (catchweed bedstraw, Galium aparine); experiment: Test A postemergence; settings: postemergence, 0 to 100 scale (0 no effect, 100 complete control)
Summary of the method: as §1

[8] = system: ragweed (common ragweed, Ambrosia elatior); experiment: Test A postemergence; settings: postemergence, 0 to 100 scale (0 no effect, 100 complete control)
Summary of the method: as §1

[9] = system: ryegrass, Italian (Italian ryegrass, Lolium multiflorum); experiment: Test A postemergence; settings: postemergence, 0 to 100 scale (0 no effect, 100 complete control)
Summary of the method: as §1

[10] = system: giant foxtail (Setaria faberii); experiment: Test A preemergence
Summary of the method: as §1

[11] = system: pigweed (Amaranthus retroflexus); experiment: Test A preemergence
Kochia (Kochia scoparia) [12] = experiment: Test A preemergence
Summary of the method: as §1

[13] = system: barnyardgrass (Echinochloa crus-galli); experiment: Test A preemergence
Summary of the method: as §1

[14] = system: ragweed (common ragweed, Ambrosia elatior); experiment: Test A preemergence
Summary of the method: as §1

[15] = system: ryegrass, Italian (Italian ryegrass, Lolium multiflorum); experiment: Test A preemergence
Summary of the method: as §1

[16] = system: ducksalad (Heteranthera limosa); experiment: Test B flooded paddy test; settings: Flood, 250 g ai/ha; 0 to 100 scale where 0 is no effect and 100 is complete control; 13 to 15 d
Summary of the method: (§2)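 Response scored visually against untreated controls, 0 = no effect and 100 = complete control, 13–15 d after treatment in the greenhouse. Compounds added to paddy water held 3 cm above soil surface. Treatment given at 2-leaf stage.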

rice (Oryra sativa) = experiment: Test B flooded paddy test; settings: Flood, 250 g ai/ha; 0 to 100 scale where 0 is no effect and 100 is complete control; 13 to 15 d
Summary of the method: as §2

[17] = system: sedge, umbrella (small-flower umbrella sedge, Cyperus difformis); experiment: Test B flooded paddy test; settings: Flood, 250 g ai/ha; 0 to 100 scale where 0 is no effect and 100 is complete control; 13 to 15 d
Summary of the method: as §2

[18] = system: barnyardgrass (Echinochloa crus-galli); experiment: Test B flooded paddy test; settings: Flood, 250 g ai/ha; 0 to 100 scale where 0 is no effect and 100 is complete control; 13 to 15 d
Summary of the method: as §2

[19] = 125 g ai/ha, visual rating after approx. 10 d
[20] = 500 g ai/ha, visual injury, approx. 10 d
[21] = 125 g ai/ha, Preemergence, visual injury after approximately 10 d, 0 to 100 scale where 0 is no effect and 100 is complete control
[22] = 500 g ai/ha, preemergence, 0 to 100 scale, 0 = no effect, 100 = complete control

CC(C)Oc1cccc(C2CN(C)C(=O)C2C(=O)Nc2cccc(F)c2F)c1 (stereo not drawn) [Compound 651]
70: Plant response rating, Blackgrass [4, 20] | Plant response rating, Ryegrass, Italian [9, 20] | Plant response rating, Kochia (Kochia (Kochia scoparia) [12]; [22])
100: Plant response rating, Foxtail, Giant [10, 22] | Plant response rating, Pigweed [11, 22] | Plant response rating, Ducksalad [16]
40: Plant response rating, Wheat [3, 19] | Plant response rating, Kochia (Kochia (Kochia scoparia) [5]; [20]) | Plant response rating, Pigweed [11, 21]
80: Plant response rating, Foxtail, Giant [1, 19] | Plant response rating, Foxtail, Giant [1, 20] | Plant response rating, Corn (corn (Zea mays); [19])
60: Plant response rating, Wheat [3, 20] | Plant response rating, Blackgrass [4, 19] | Plant response rating, Galium [7, 19] | Plant response rating, Galium [7, 20] | Plant response rating, Kochia (Kochia (Kochia scoparia) [12]; [21]) | Plant response rating, Barnyardgrass [18]
30: Plant response rating, Pigweed [2, 20]
50: Plant response rating, Ryegrass, Italian [9, 19] | Plant response rating, Ragweed [14, 21]
90: Plant response rating, Corn (corn (Zea mays); [20]) | Plant response rating, Barnyardgrass [6, 19] | Plant response rating, Barnyardgrass [6, 20] | Plant response rating, Foxtail, Giant [10, 21] | Plant response rating, Barnyardgrass [13, 21] | Plant response rating, Barnyardgrass [13, 22] | Plant response rating, Ragweed [14, 22] | Plant response rating, Ryegrass, Italian [15, 21] | Plant response rating, Ryegrass, Italian [15, 22]
0: Plant response rating, Pigweed [2, 19] | Plant response rating, Kochia (Kochia (Kochia scoparia) [5]; [19]) | Plant response rating, Ragweed [8, 19] | Plant response rating, Rice (rice (Oryra sativa)) | Plant response rating, Sedge, Umbrella [17]
20: Plant response rating, Ragweed [8, 20]
